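Interpolation was linear, between the two tested concentrations surrounding the appropriate level; five concentrations were tested over 48 hours in 96-well plates. TGI denotes the concentration required for complete inhibition of growth.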
Columns and labels:
Test in all cases: NCI tumour cell line growth inhibition, 48 h
786-0 renal = system: 786-0 renal
A498 renal = system: A498 renal
A549 NSCLC = system: A549 NSCLC
ACHN renal = system: ACHN renal
CAKI-1 renal = system: CAKI-1 renal
CCRF-CEM leukemia = system: CCRF-CEM leukemia
COLO 205 colon = system: COLO 205 colon
DLD-1 colon = system: DLD-1 colon
DMS 273 small cell lung = system: DMS 273 small cell lung
EKVX NSCLC = system: EKVX NSCLC
HCC-2998 colon = system: HCC-2998 colon
HCT-116 colon = system: HCT-116 colon
HCT-15 colon = system: HCT-15 colon
HL-60(TB) leukemia = system: HL-60(TB) leukemia
HOP-18 NSCLC = system: HOP-18 NSCLC
HOP-62 NSCLC = system: HOP-62 NSCLC
HOP-92 NSCLC = system: HOP-92 NSCLC
HT29 colon = system: HT29 colon
IGROV1 ovarian = system: IGROV1 ovarian
KM12 colon = system: KM12 colon
KM20L2 colon = system: KM20L2 colon
LOX IMVI melanoma = system: LOX IMVI melanoma
LXFL 529 NSCLC = system: LXFL 529 NSCLC
M14 melanoma = system: M14 melanoma
M19-MEL melanoma = system: M19-MEL melanoma
MALME-3M melanoma = system: MALME-3M melanoma
MOLT-4 leukemia = system: MOLT-4 leukemia
NCI-H226 lung = system: NCI-H226 lung
NCI-H23 lung = system: NCI-H23 lung
NCI-H460 lung = system: NCI-H460 lung
OVCAR-3 ovarian = system: OVCAR-3 ovarian
OVCAR-4 ovarian = system: OVCAR-4 ovarian
OVCAR-5 ovarian = system: OVCAR-5 ovarian
OVCAR-8 ovarian = system: OVCAR-8 ovarian
RPMI-8226 leukemia = system: RPMI-8226 leukemia
SF-268 CNS = system: SF-268 CNS
SF-295 CNS = system: SF-295 CNS
SF-539 CNS = system: SF-539 CNS
SK-MEL-28 melanoma = system: SK-MEL-28 melanoma
SK-MEL-5 melanoma = system: SK-MEL-5 melanoma
SK-OV-3 ovarian = system: SK-OV-3 ovarian
SN12C renal = system: SN12C renal
SNB-19 CNS = system: SNB-19 CNS
SNB-78 CNS = system: SNB-78 CNS
SR leukemia = system: SR leukemia
SW-620 colon = system: SW-620 colon
UACC-257 melanoma = system: UACC-257 melanoma
UACC-62 melanoma = system: UACC-62 melanoma
UO-31 renal = system: UO-31 renal
XF 498 CNS = system: XF 498 CNS
DMS 114 small cell lung = system: DMS 114 small cell lung
K-562 leukemia = system: K-562 leukemia
NCI-H522 lung = system: NCI-H522 lung
RXF 393 renal = system: RXF 393 renal
RXF-631 renal = system: RXF-631 renal
SK-MEL-2 melanoma = system: SK-MEL-2 melanoma
SNB-75 CNS = system: SNB-75 CNS
TK-10 renal = system: TK-10 renal
U251 CNS = system: U251 CNS

Measured: TGI

COc1cc2c(c(OC)c1OC)-c1ccc(SC)c(=O)cc1C(CC(=O)Oc1cccc(C#N)c1)C2 (configuration not stated)
56.3 µM: SR leukemia
5.33 µM: CCRF-CEM leukemia
> 33.2 µM: LOX IMVI melanoma
1.59 µM: HCC-2998 colon
5.66 µM: HCT-116 colon
0.443 µM: KM20L2 colon
2.35 µM: HL-60(TB) leukemia
5.32 µM: UACC-62 melanoma
21.9 µM: RPMI-8226 leukemia
0.796 µM: HT29 colon
40.8 µM: SK-MEL-5 melanoma
4.83 µM: KM12 colon
6.47 µM: HCT-15 colon
19.7 µM: NCI-H460 lung
3.41 µM: COLO 205 colon
0.602 µM: SF-539 CNS
0.522 µM: A498 renal
0.794 µM: OVCAR-3 ovarian
> 77.7 µM: SN12C renal
> 100 µM: 786-0 renal | A549 NSCLC | ACHN renal | CAKI-1 renal | DLD-1 colon | DMS 273 small cell lung | EKVX NSCLC | HOP-18 NSCLC | HOP-62 NSCLC | HOP-92 NSCLC | IGROV1 ovarian | LXFL 529 NSCLC | M19-MEL melanoma | MALME-3M melanoma | MOLT-4 leukemia | OVCAR-4 ovarian | OVCAR-5 ovarian | SF-268 CNS | SF-295 CNS | SK-MEL-28 melanoma | SK-OV-3 ovarian | SNB-19 CNS | SNB-78 CNS | SW-620 colon | UACC-257 melanoma | UO-31 renal
1.02 µM: NCI-H226 lung
> 88.8 µM: M14 melanoma
6.88 µM: OVCAR-8 ovarian
> 34.6 µM: NCI-H23 lung
2.23 µM: XF 498 CNS

CN1CCCCC(C(O)(c2ccccc2)c2ccccc2)C1=O (configuration not stated)
56.9 µM: HCT-116 colon
25.9 µM: SW-620 colon
32.1 µM: HCT-15 colon
65.7 µM: RPMI-8226 leukemia
> 100 µM: 786-0 renal | A498 renal | A549 NSCLC | ACHN renal | CCRF-CEM leukemia | COLO 205 colon | DLD-1 colon | DMS 114 small cell lung | DMS 273 small cell lung | EKVX NSCLC | HCC-2998 colon | HOP-18 NSCLC | HOP-62 NSCLC | HOP-92 NSCLC | HT29 colon | IGROV1 ovarian | K-562 leukemia | KM12 colon | KM20L2 colon | LOX IMVI melanoma | LXFL 529 NSCLC | M14 melanoma | M19-MEL melanoma | MALME-3M melanoma | MOLT-4 leukemia | NCI-H226 lung | NCI-H23 lung | NCI-H460 lung | NCI-H522 lung | OVCAR-3 ovarian | OVCAR-4 ovarian | OVCAR-5 ovarian | OVCAR-8 ovarian | RXF 393 renal | RXF-631 renal | SF-268 CNS | SF-295 CNS | SF-539 CNS | SK-MEL-2 melanoma | SK-MEL-28 melanoma | SK-MEL-5 melanoma | SK-OV-3 ovarian | SN12C renal | SNB-19 CNS | SNB-75 CNS | SNB-78 CNS | SR leukemia | TK-10 renal | U251 CNS | UACC-257 melanoma | UACC-62 melanoma | UO-31 renal | XF 498 CNS

Source: PubChem BioAssay (NCI)
